Experimental data from patent US20100273848A1, “IMINOPYRROLIDONE THIOL AMINO ACID CONJUGATES, PHARMACEUTICAL COMPOSITIONS AND METHODS FOR THE TREATMENT OF CANCER” (THE ARIZONA BD OR REG ON BEHALF OF THE UNIV OF AZ, priority 2007, published 2010).
Like-named read-outs stand apart in the source and are kept apart here.

Experiments:
[1] = system: A375 human malignant melanoma cells; test: Cytotoxicity study, SRB assay, A375 cells; format: cell-based; details: 96 hours, read-out: IC50 at 72* or 96 hours
Description: (§1) Example 1 illustrates a method of determining the antineoplastic activity of iminopyrrolidone thiol amino acid conjugates in vitro. Ninety-six (96) well plates (BD Biosciences, San Jose, Calif.) were seeded with approximately 5000 cells in 160 μl of growth medium per well in the last eleven columns of each plate. The first column of each plate was filled with 160 μl of growth medium containing no cells to be used as a blank. Following a 24-hour incubation period, the cells in the last ten columns were drugged (leaving row one as a blank and row two as a control with uninhibited cell growth) with 40 μl of either simexonyl homocysteine or imexon in growth medium. The quantity of drug added to the wells of each respective column was constant, but varied from column to column such that the resulting concentration in the total volume of each individual well ranged from 1 μM to 1000 μM. […]

[2] = system: 8226/s human myeloma cells (chemotherapy sensitive); test: Cytotoxicity study, MTT assay, 8226/s cells; format: cell-based; details: 8226/s - Myeloma, 96 hours, read-out: IC50 at 72* or 96 hours
Description: as §1

DB lymphoma cells [3] = test: Cytotoxicity study, MTT assay, DB cells; format: cell-based, human; details: 96 hours, read-out: IC50 at 72* or 96 hours
Description: as §1

DB lymphoma cells [4] = details: 45, 90 or 180 μM, 48 hours after drug exposure, FIG. 6
Description: DB and Raji lymphoma cells were kindly provided by Dr. Alan List (University of Arizona, Tucson, Ariz.). All cell lines were cultured in RPMI 1640 media (Mediatech, Herndon, Va.) enhanced with 5% (v/v) (10% for DB and Raji cells) heat-inactivated bovine calf serum (Hyclone Laboratories, Logan, Utah), 2 mM L-glutamine, 100 U/ml penicillin, and 100 μg/ml streptomycin (each from Invitrogen, Carlsbad, Calif.) in a humidified incubator containing 5% CO2 at 37° C.
DB lymphoma cells were cultured in ninety-six (96) well plates (BD Biosciences) under conditions as described hereinbefore. […] Forty eight hours after drug exposure, the percentage of necrotic, viable, proapoptotic, and apoptotic cells in each respective well was measured using an annexin V—FITC (fluorescein isothiocyanate labeled annexin V) apoptosis detection kit (BioVision Labs) according to the manufacturer's instructions in conjunction with a Bectin Dickenson FACScan (San Jose, Calif.) fluorescence activated cell sorter using CellQuest Pro software (BD Biosciences). […]
A threshold intensity for the fluorescence signal permits one to distinguish between proapoptotic and apoptotic cells in the flow cytometric analysis, but both are indicative of an induction of apoptosis by the drug.

Raji lymphoma cells = test: Cytotoxicity study, MTT assay, Raji cells; format: cell-based, human; details: 96 hours, read-out: IC50 at 72* or 96 hours
Description: as §1

[5] = system: 8226/I10 human myeloma cells (chemotherapy resistant); test: Cytotoxicity study, MTT assay, 8226/I10 cells; format: cell-based; details: 8226/I10 - Myeloma, 96 hours, read-out: IC50 at 72* or 96 hours
Description: as §1

[6] = system: MiaPaCa human pancreatic cancer cells; test: Cytotoxicity study, SRB assay, MiaPaCa cells; format: cell-based; details: 96 hours, read-out: IC50 at 72* or 96 hours
Description: as §1

[7] = system: PC-3 human prostate cancer cells; test: Cytotoxicity study, SRB assay, PC-3 cells; format: cell-based; details: PC-3 - Prostate, 72 hours (*), read-out: IC50 at 72* or 96 hours
Description: as §1

[8] = system: DU-145 human prostate cancer cells; test: Cytotoxicity study, SRB assay, DU-145 cells; format: cell-based; details: DU-145 - Prostate, 96 hours, read-out: IC50 at 72* or 96 hours
Description: as §1

Compound | IC50 [1] | IC50 [2] | IC50 (DB lymphoma cells [3]) | induction of apoptosis (percentage of proapoptotic and apoptotic cells) (DB lymphoma cells [4]) | IC50 (Raji lymphoma cells) | IC50 [5] | IC50 ([6]; MiaPaCa - Pancreas) | IC50 [7] | IC50 [8] | IC50 (DB lymphoma cells [3]; Homo sapiens) | IC50 (Raji lymphoma cells; Homo sapiens) | IC50 ([6]; Homo sapiens, MIA PaCa-2, MiaPaCa - Pancreas)
simexonyl homocysteine | 15.4 µM | 13.6 µM | 23 µM | induced apoptosis | 22 µM | 95 µM | 46 µM | 49 µM | 143 µM |  |  | 
NC1=NC(=O)N2CC12 (racemic) [imexon, (5RS)-4-amino-1,3-diazabicyclo[3.1.0]hex-3-en-2-one, reference compound] |  |  |  |  |  |  |  |  |  | 54 µM | 50 µM | 190 µM
